Laboratory results from patent US8551937B2, “Peptide having an extending action for half-life of object peptide in plasma” (priority 2008, dated 2013).
Where a SMILES comes first, the peptide text is derived from it.

Test: Motilin immunoreactivity concentration in plasma, half-life after intravenous administration (Example 8)
Conditions: rat, in vivo, iv, 10 nmol/kg
Method: The experiment was carried out using rats into which polyethylene tube (PE-50 manufactured by Clay Adams) was inserted into thigh artery under an anesthetized condition with Nembutal. As to a test system, male SD strain rats (Nippon Charles River) of 7 weeks age were used where one group comprised 3 rats. Human motilin or a derivative thereof in a dose of 10 nmol/kg was administered into tail vein of the rat and the blood before the administration and until 60 minutes after the administration was periodically collected by a polyethylene tube inserted into the thigh artery. To the collected blood were added EDTA (manufactured by Dojin Laboratories) and aprotinin (manufactured by Bayer) as a stabilizer and an anti-coagulant, respectively and the plasma was separated therefrom by centrifugal separation. Motilin immunoreactivity concentration in plasma was measured by a competitive radioimmunoassay (RIA) (FIG. 8). At that time, a rabbit polyclonal antibody (#870623) which specifically recognizes the amino acid numbers 1 to 12 of native motilin shown by SEQ ID No: 102 was used as an antibody and, as a labeled compound, ^125I-[Tyr^7] human motilin was used.

Row | Compound | half-life (male, SD) [min] | half-life [min]
1 | CC[C@H](C)[C@H](NC(=O)[C@@H]1CCCN1C(=O)[C@@H](NC(=O)[C@@H](N)Cc1ccccc1)C(C)C)C(=O)N[C@@H](Cc1ccccc1)C(=O)N[C@H](C(=O)N[C@@H](Cc1ccc(O)cc1)C(=O)NCC(=O)N[C@@H](CCC(=O)O)C(=O)N[C@@H](CC(C)C)C(=O)N[C@@H](CCC(N)=O)C(=O)N[C@@H](CCCNC(=N)N)C(=O)N[C@H](C(=O)N[C@@H](CCC(N)=O)C(=O)N[C@@H](CCC(N)=O)C(=O)N[C@@H](CCCNC(=N)N)C(=O)N[C@@H](CCCCN)C(=O)NCC(=O)NCC(=O)N[C@@H](CCC(=O)O)C(=O)N[C@@H](CO)C(=O)NCC(=O)N[C@@H](CCCCN)C(=O)N[C@@H](CCCCN)C(=O)N1CCC[C@H]1C(=O)N1CCC[C@H]1C(=O)N[C@@H](C)C(=O)N[C@@H](CCCCN)C(=O)N[C@@H](CC(C)C)C(=O)N[C@@H](CCC(N)=O)C(=O)N1CCC[C@H]1C(=O)N[C@@H](CCCNC(=N)N)C(=O)O)C(C)C)[C@@H](C)O [Chimeric motilin (III) (MG-i17G2-19iG)] (H-FVPIFTYGELQRVQQRKGGESGKKPPAKLQPR-OH; N-terminus and C-terminus assumed) | 10.7 | –
2 | CC[C@H](C)[C@H](NC(=O)[C@@H]1CCCN1C(=O)[C@@H](NC(=O)[C@@H](N)Cc1ccccc1)C(C)C)C(=O)N[C@@H](Cc1ccccc1)C(=O)N[C@H](C(=O)N[C@@H](Cc1ccc(O)cc1)C(=O)NCC(=O)N[C@@H](CCC(=O)O)C(=O)N[C@@H](CC(C)C)C(=O)N[C@@H](CCC(N)=O)C(=O)N[C@@H](CCCNC(=N)N)C(=O)N[C@H](C(=O)N[C@@H](CCC(N)=O)C(=O)N[C@@H](CCC(N)=O)C(=O)N[C@@H](CCCNC(=N)N)C(=O)N[C@@H](CCCCN)C(=O)N[C@@H](CCC(=O)O)C(=O)N[C@@H](CO)C(=O)N[C@@H](CCCCN)C(=O)N[C@@H](CCCCN)C(=O)N[C@@H](C)C(=O)N[C@@H](CCCCN)C(=O)N[C@@H](CC(C)C)C(=O)N[C@@H](CCC(N)=O)C(=O)N1CCC[C@H]1C(=O)N[C@@H](CCCNC(=N)N)C(=O)O)C(C)C)[C@@H](C)O [Chimeric motilin (IV)(MG-dPP)] (H-FVPIFTYGELQRVQQRKESKKAKLQPR-OH; N-terminus and C-terminus assumed) | – | 7.73
3 | CC[C@H](C)[C@H](NC(=O)[C@H](CCSC)NC(=O)[C@H](CCCCN)NC(=O)[C@H](CCCCN)NC(=O)[C@H](CO)NC(=O)[C@H](CCC(=O)O)NC(=O)[C@H](CCCCN)NC(=O)[C@H](CCCNC(=N)N)NC(=O)[C@H](CCC(N)=O)NC(=O)[C@H](CCC(N)=O)NC(=O)[C@@H](NC(=O)[C@H](CCCNC(=N)N)NC(=O)[C@H](CCC(N)=O)NC(=O)[C@H](CC(C)C)NC(=O)[C@H](CCC(=O)O)NC(=O)CNC(=O)[C@H](Cc1ccc(O)cc1)NC(=O)[C@@H](NC(=O)[C@H](Cc1ccccc1)NC(=O)[C@@H](NC(=O)[C@@H]1CCCN1C(=O)[C@@H](NC(=O)[C@@H](N)Cc1ccccc1)C(C)C)[C@@H](C)CC)[C@@H](C)O)C(C)C)C(=O)N[C@H](C(=O)N[C@H](C(=O)N[C@@H](CCCNC(=N)N)C(=O)O)[C@@H](C)CC)[C@@H](C)O [Chimeric motilin (IX)(MG-dPPS)] (H-FVPIFTYGELQRVQQRKESKKMITIR-OH; N-terminus and C-terminus assumed) | 4.39 | –
4 | CC[C@H](C)[C@H](NC(=O)[C@@H]1CCCN1C(=O)[C@@H](NC(=O)[C@@H](N)Cc1ccccc1)C(C)C)C(=O)N[C@@H](Cc1ccccc1)C(=O)N[C@H](C(=O)N[C@@H](Cc1ccc(O)cc1)C(=O)NCC(=O)N[C@@H](CCC(=O)O)C(=O)N[C@@H](CC(C)C)C(=O)N[C@@H](CCC(N)=O)C(=O)N[C@@H](CCCNC(=N)N)C(=O)N[C@H](C(=O)N[C@@H](CCC(N)=O)C(=O)N[C@@H](CCC(N)=O)C(=O)N[C@@H](CCCNC(=N)N)C(=O)N[C@@H](CCCCN)C(=O)N[C@@H](CCC(=O)O)C(=O)N[C@@H](Cc1ccccc1)C(=O)N[C@@H](CCCCN)C(=O)N[C@@H](CCCCN)C(=O)N1CCC[C@H]1C(=O)N1CCC[C@H]1C(=O)N[C@@H](C)C(=O)N[C@@H](CCCCN)C(=O)N[C@@H](CC(C)C)C(=O)N[C@@H](CCC(N)=O)C(=O)N1CCC[C@H]1C(=O)N[C@@H](CCCNC(=N)N)C(=O)O)C(C)C)[C@@H](C)O [Chimeric motilin (O)(MG-18S/F)] (H-FVPIFTYGELQRVQQRKEFKKPPAKLQPR-OH; N-terminus and C-terminus assumed) | 7.73 | –

The next lines start with the values.

Row | half-life (male, SD) [min] | half-life [min] | Compound
5 | 9.12 | – | CC[C@H](C)[C@H](NC(=O)[C@@H]1CCCN1C(=O)[C@@H](NC(=O)[C@@H](N)Cc1ccccc1)C(C)C)C(=O)N[C@@H](Cc1ccccc1)C(=O)N[C@H](C(=O)N[C@@H](Cc1ccc(O)cc1)C(=O)NCC(=O)N[C@@H](CCC(=O)O)C(=O)N[C@@H](CC(C)C)C(=O)N[C@@H](CCC(N)=O)C(=O)N[C@@H](CCCNC(=N)N)C(=O)N[C@H](C(=O)N[C@@H](CCC(N)=O)C(=O)N[C@@H](CCC(N)=O)C(=O)N[C@@H](CCCNC(=N)N)C(=O)N[C@@H](CCCCN)C(=O)N[C@@H](CCC(=O)O)C(=O)N[C@@H](CCCCN)C(=O)N[C@@H](CCCCN)C(=O)N1CCC[C@H]1C(=O)N1CCC[C@H]1C(=O)N[C@@H](C)C(=O)N[C@@H](CCCCN)C(=O)N[C@@H](CC(C)C)C(=O)N[C@@H](CCC(N)=O)C(=O)N1CCC[C@H]1C(=O)N[C@@H](CCCNC(=N)N)C(=O)O)C(C)C)[C@@H](C)O [Chimeric motilin (N)(MG-dS)] (H-FVPIFTYGELQRVQQRKEKKPPAKLQPR-OH; N-terminus and C-terminus assumed)
6 | 9.67 | – | CC[C@H](C)[C@H](NC(=O)[C@@H]1CCCN1C(=O)[C@@H](NC(=O)[C@@H](N)Cc1ccccc1)C(C)C)C(=O)N[C@@H](Cc1ccccc1)C(=O)N[C@H](C(=O)N[C@@H](Cc1ccc(O)cc1)C(=O)NCC(=O)N[C@@H](CCC(=O)O)C(=O)N[C@@H](CC(C)C)C(=O)N[C@@H](CCC(N)=O)C(=O)N[C@@H](CCCNC(=N)N)C(=O)N[C@H](C(=O)N[C@@H](CCC(N)=O)C(=O)N[C@@H](CCC(N)=O)C(=O)N[C@@H](CCCNC(=N)N)C(=O)N[C@@H](CCCCN)C(=O)N[C@@H](CCC(=O)O)C(=O)N[C@H](C(=O)N[C@@H](CCCCN)C(=O)N[C@@H](CCCCN)C(=O)N1CCC[C@H]1C(=O)N1CCC[C@H]1C(=O)N[C@@H](C)C(=O)N[C@@H](CCCCN)C(=O)N[C@@H](CC(C)C)C(=O)N[C@@H](CCC(N)=O)C(=O)N1CCC[C@H]1C(=O)N[C@@H](CCCNC(=N)N)C(=O)O)[C@@H](C)O)C(C)C)[C@@H](C)O [Chimeric motilin (P)(MG-18S/T)] (H-FVPIFTYGELQRVQQRKETKKPPAKLQPR-OH; N-terminus and C-terminus assumed)
7 | 9.65 | – | CC[C@H](C)[C@H](NC(=O)[C@@H]1CCCN1C(=O)[C@@H](NC(=O)[C@@H](N)Cc1ccccc1)C(C)C)C(=O)N[C@@H](Cc1ccccc1)C(=O)N[C@H](C(=O)N[C@@H](Cc1ccc(O)cc1)C(=O)NCC(=O)N[C@@H](CCC(=O)O)C(=O)N[C@@H](CC(C)C)C(=O)N[C@@H](CCC(N)=O)C(=O)N[C@@H](CCCNC(=N)N)C(=O)N[C@H](C(=O)N[C@@H](CCC(N)=O)C(=O)N[C@@H](CCC(N)=O)C(=O)N[C@@H](CCCNC(=N)N)C(=O)N[C@@H](CCCCN)C(=O)N[C@@H](CCC(=O)O)C(=O)N1CCC[C@H]1C(=O)N[C@@H](CCCCN)C(=O)N[C@@H](CCCCN)C(=O)N1CCC[C@H]1C(=O)N1CCC[C@H]1C(=O)N[C@@H](C)C(=O)N[C@@H](CCCCN)C(=O)N[C@@H](CC(C)C)C(=O)N[C@@H](CCC(N)=O)C(=O)N1CCC[C@H]1C(=O)N[C@@H](CCCNC(=N)N)C(=O)O)C(C)C)[C@@H](C)O [Chimeric motilin (Q)(MG-18S/P)] (H-FVPIFTYGELQRVQQRKEPKKPPAKLQPR-OH; N-terminus and C-terminus assumed)
8 | 9.13 | – | CC[C@H](C)[C@H](NC(=O)[C@@H]1CCCN1C(=O)[C@@H](NC(=O)[C@@H](N)Cc1ccccc1)C(C)C)C(=O)N[C@@H](Cc1ccccc1)C(=O)N[C@H](C(=O)N[C@@H](Cc1ccc(O)cc1)C(=O)NCC(=O)N[C@@H](CCC(=O)O)C(=O)N[C@@H](CC(C)C)C(=O)N[C@@H](CCC(N)=O)C(=O)N[C@@H](CCCNC(=N)N)C(=O)N[C@H](C(=O)N[C@@H](CCC(N)=O)C(=O)N[C@@H](CCC(N)=O)C(=O)N[C@@H](CCCNC(=N)N)C(=O)N[C@@H](CCCCN)C(=O)N[C@@H](CCC(=O)O)C(=O)N[C@@H](CC(C)C)C(=O)N[C@@H](CCCCN)C(=O)N[C@@H](CCCCN)C(=O)N1CCC[C@H]1C(=O)N1CCC[C@H]1C(=O)N[C@@H](C)C(=O)N[C@@H](CCCCN)C(=O)N[C@@H](CC(C)C)C(=O)N[C@@H](CCC(N)=O)C(=O)N1CCC[C@H]1C(=O)N[C@@H](CCCNC(=N)N)C(=O)O)C(C)C)[C@@H](C)O [Chimeric motilin (R)(MG-18S/L)] (H-FVPIFTYGELQRVQQRKELKKPPAKLQPR-OH; N-terminus and C-terminus assumed)
9 | 9.29 | – | CC[C@H](C)[C@H](NC(=O)[C@@H]1CCCN1C(=O)[C@@H](NC(=O)[C@@H](N)Cc1ccccc1)C(C)C)C(=O)N[C@@H](Cc1ccccc1)C(=O)N[C@H](C(=O)N[C@@H](Cc1ccc(O)cc1)C(=O)NCC(=O)N[C@@H](CCC(=O)O)C(=O)N[C@@H](CC(C)C)C(=O)N[C@@H](CCC(N)=O)C(=O)N[C@@H](CCCNC(=N)N)C(=O)N[C@H](C(=O)N[C@@H](CCC(N)=O)C(=O)N[C@@H](CCC(N)=O)C(=O)N[C@@H](CCCNC(=N)N)C(=O)N[C@@H](CCCCN)C(=O)N[C@@H](CCC(=O)O)C(=O)N[C@@H](C)C(=O)N[C@@H](CCCCN)C(=O)N[C@@H](CCCCN)C(=O)N1CCC[C@H]1C(=O)N1CCC[C@H]1C(=O)N[C@@H](C)C(=O)N[C@@H](CCCCN)C(=O)N[C@@H](CC(C)C)C(=O)N[C@@H](CCC(N)=O)C(=O)N1CCC[C@H]1C(=O)N[C@@H](CCCNC(=N)N)C(=O)O)C(C)C)[C@@H](C)O [Chimeric motilin (S)(MG-18S/A)] (H-FVPIFTYGELQRVQQRKEAKKPPAKLQPR-OH; N-terminus and C-terminus assumed)
